Among the data in patent US7173004B2, “Macrocyclic isoquinoline peptide inhibitors of hepatitis C virus” (Bristol-Myers Squibb Company, priority 2003, dated 2007) are IC50 values, retold here.

The target in this experiment is T1, HCV NS3/4A protease complex, BMS strain (genotype 1a) (UniProt P27958, C1454S/C1711G, species not given/STRAIN_BMS).
T1 construct: b1001: DNA encoding the recombinant HCV NS3/4A protease complex (amino acids 1027 to 1711) ... a three-lysine solubilizing tail was added at the 3′-end of the NS4A coding region; fused on or other part: Three-lysine solubilising tail at the C-terminus of NS4A; A His tag is implied by the pET21b vector and Ni-NTA purification
Put plainly: Recombinant HCV NS3/4A protease complex FRET peptide assay, BMS strain. The note with it: NS3/4A BMS strain; activity range symbols. Format: biochemical. The gist of the method: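 Recombinant NS3/4A (aa 1027–1711) from H77C, J4L6S or BMS strains, with C1454S and C1711G mutations and three-lysine tail, expressed in E. coli and Ni-NTA/gel-filtration purified to >90%. Inhibition of cleavage of a FRET peptide substrate measured.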
Regarding `COc1ccc2c(OC3CC4C(=O)NC5(C(=O)NS(=O)(=O)C6CC6)CC5C=CCCCSC(C)(C)C(N)C(=O)N4C3)nccc2c1` (stereo not shown) [Compound 83], the IC50 lay in the range of 500 to 5000 nM.

`COc1cccc2c(OC3CC4C(=O)NC5(C(=O)NS(=O)(=O)C6CC6)CC5C=CCCCCCC(NC(=O)OC(C)(C)C)C(=O)N4C3)nccc12` (stereo not shown) [Compound 133]: the IC50 is under 50 nM.

As to `COc1ccc2c(OC3CC4C(=O)NC5(C(=O)NS(=O)(=O)C6CC6)CC5C=CCCCOCC(NC(=O)OCC(C)(C)C)C(=O)N4C3)nccc2c1` (stereo not shown) [Compound 88], the IC50 is under 50 nM.

Take `COc1ccc2c(OC3CC4C(=O)NC5(C(=O)NS(=O)(=O)C6CC6)CC5C=CCOCCCC(NC(=O)Nc5ccc(C#N)cc5)C(=O)N4C3)nc(-c3ccccc3)cc2c1` (stereo not shown) [Compound 105]: the IC50 was under 50 nM.

`O=C(NC1CCCC1)NC1CCCCCC=CC2CC2(C(=O)NS(=O)(=O)C2CC2)NC(=O)C2CC(Oc3nccc4ccccc34)CN2C1=O` (stereo not shown) [Compound 127]: the IC50 is under 50 nM.

Consider `COc1ccc2c(OC3CC4C(=O)NC5(C(=O)NS(=O)(=O)C6CC6)CC5C=CCCCOCC(NC(=O)OC(C)C)C(=O)N4C3)nc(-c3ccccc3)cc2c1` (stereo not shown) [Compound 96], for which the IC50 was under 50 nM.

For the molecule `CC(C)NC(=O)NC1CCCCCC=CC2CC2(C(=O)NS(=O)(=O)C2CC2)NC(=O)C2CC(Oc3nccc4ccccc34)CN2C1=O` (stereo not shown) [Compound 128], the IC50 is under 50 nM.

For `COc1ccc2c(OC3CC4C(=O)NC5(C(=O)NS(=O)(=O)C6CC6)CC5C=CCCCOCC(NC(=O)OC5CCCC5)C(=O)N4C3)nc(-c3ccc(N(C)C)cc3)cc2c1` (stereo not shown) [Compound 110], the IC50 was under 50 nM.

As for `COc1ccc2c(O[C@@H]3C[C@H]4C(=O)N[C@]5(C(=O)NS(=O)(=O)C6CC6)C[C@H]5/C=C\CCCSC(C)(C)[C@H](NC(=O)OC(C)(C)C)C(=O)N4C3)nccc2c1` [Compound 80, (1S,4R,6S,14R,18R)-[7-cis-4-Cyclopropanesulfonylaminocarbonyl-13,13-dimethyl-18-(6-methoxyisoquinolin-1-yloxy)-2,15-dioxo-12-thia-3,16-diaza-tricyclo[14.3.0.0^4,6]nonadec-7-en-14-yl]carbamic acid, tert-butyl ester], the IC50 is under 50 nM.

Turning to `COc1ccc2c(OC3CC4C(=O)NC5(C(=O)NS(=O)(=O)C6CC6)CC5C=CCCCCCC(NC(=O)NC(C)(C)C)C(=O)N4C3)nccc2c1` (stereo not shown) [Compound 135], the IC50 was under 50 nM.

As to `CCC(C)(C)OC(=O)NC1CCCCCC=CC2CC2(C(=O)NS(=O)(=O)C2CC2)NC(=O)C2CC(Oc3nccc4ccccc34)CN2C1=O` (stereo not shown) [Compound 125], the IC50 was under 50 nM.

With `COc1ccc2c(OC3CC4C(=O)NC5(C(=O)NS(=O)(=O)C6CC6)CC5C=CCOCCCC(NC(=O)NC(C)(C)C)C(=O)N4C3)nc(-c3ccccc3)cc2c1` (stereo not shown) [Compound 102], the 50% inhibitory concentration (IC50) is under 50 nM.

Turning to `COc1ccc2c(OC3CC4C(=O)NC5(C(=O)NS(=O)(=O)C6(C)CC6)CC5C=CCCCSCC(NC(=O)OC(C)(C)C)C(=O)N4C3)nccc2c1` (stereo not shown) [Compound 115], the IC50 was under 50 nM.

Turning to `COc1ccc2c(OC3CC4C(=O)NC5(C(=O)NS(=O)(=O)C6CC6)CC5C=CCCCSC(C)(C)C(NC(=O)NC5CCCC5)C(=O)N4C3)nccc2c1` (stereo not shown) [Compound 82], the IC50 is under 50 nM.

Turning to `COc1ccc2c(OC3CC4C(=O)NC5(C(=O)NS(=O)(=O)C6CC6)CC5C=CCCCOCC(NC(=O)OCC(C)(C)C)C(=O)N4C3)nc(-c3ccccc3)cc2c1` (stereo not shown) [Compound 95], the IC50 is under 50 nM.

As for `COc1ccc2c(O[C@@H]3C[C@H]4C(=O)N[C@]5(C(=O)NS(=O)(=O)C6CC6)C[C@H]5/C=C\CCCOC[C@H](NC(=O)OC(C)(C)C)C(=O)N4C3)nccc2c1` [Compound 85, (1S,4R,6S,14S,18R)-[7-cis-4-Cyclopropanesulfonylaminocarbonyl-18-(6-methoxy-isoquinolin-1-yloxy)-2,15-dioxo-12-oxa-3,16-diaza-tricyclo[14.3.0.0^4,6]nonadec-7-en-14-yl]-carbamic acid, tert-butyl ester], the IC50 is under 50 nM.

For the molecule `COc1ccc2c(OC3CC4C(=O)NC5(C(=O)NS(=O)(=O)C6CC6)CC5C=CCOCCCC(NC(=S)NC5CC5)C(=O)N4C3)nc(-c3ccccc3)cc2c1` (stereo not shown) [Compound 104], the half-maximal inhibitory concentration (IC50) is under 50 nM.

As for `O=CNC1CCCCCC=CC2CC2(C(=O)NS(=O)(=O)C2CC2)NC(=O)C2CC(Oc3nccc4ccccc34)CN2C1=O` (stereo not shown) [Compound 119], the IC50 is under 50 nM.

For `COc1ccc2c(OC3CC4C(=O)NC5(C(=O)NS(=O)(=O)C6CC6)CC5C=CCOCCCC(NC(=O)OC(C)(C)C)C(=O)N4C3)nc(-c3ccc(N(C)C=O)cc3)cc2c1` (stereo not shown) [Compound 114], the IC50 was under 50 nM.

With `COc1ccc2c(OC3CC4C(=O)NC5(C(=O)NS(=O)(=O)C6CC6)CC5C=CCCCOCC(NC(=O)OC5CCCC5)C(=O)N4C3)nccc2c1` (stereo not shown) [Compound 90], the IC50 was under 50 nM.

Consider `CNc1ccc(-c2cc3cc(OC)ccc3c(OC3CC4C(=O)NC5(C(=O)NS(=O)(=O)C6CC6)CC5C=CCOCCCC(NC(=O)OC(C)(C)C)C(=O)N4C3)n2)cc1` (stereo not shown) [Compound 113], for which the IC50 was under 50 nM.

In the case of `COc1ccc2c(OC3CC4C(=O)NC5(C(=O)NS(=O)(=O)C6CC6)CC5C=CCCCOCC(NC(=O)NC5CCCC5)C(=O)N4C3)nccc2c1` (stereo not shown) [Compound 87], the IC50 is under 50 nM.

With `COc1ccc2c(OC3CC4C(=O)NC5(C(=O)NS(=O)(=O)C6CC6)CC5C=CCCCOCC(NC(=O)N5CCCC5)C(=O)N4C3)nc(-c3ccc(N(C)C)cc3)cc2c1` (stereo not shown) [Compound 111], the IC50 was under 50 nM.

With `CC1(COC(=O)NC2CCCCCC=CC3CC3(C(=O)NS(=O)(=O)C3CC3)NC(=O)C3CC(Oc4nccc5ccccc45)CN3C2=O)CC1` (stereo not shown) [Compound 122], the IC50 is under 50 nM.

On to `COc1ccc2c(OC3CC4C(=O)NC5(C(=O)NS(=O)(=O)C6CC6)CC5C=CCCCCCC(NC(=O)NC5CCCC5)C(=O)N4C3)nccc2c1` (stereo not shown) [Compound 136], for which the IC50 is under 50 nM.

As for `COc1ccc2c(OC3CC4C(=O)NC5(C(=O)NS(=O)(=O)C6CC6)CC5C=CCCCOCC(NC(=O)OC(C)C)C(=O)N4C3)nc(-c3ccc(N(C)C)cc3)cc2c1` (stereo not shown) [Compound 109], the IC50 was under 50 nM.

As to `CC(C)(C)NC(=O)N1CCC/C=C\[C@@H]2C[C@@]2(C(=O)NS(=O)(=O)C2CC2)NC(=O)[C@@H]2C[C@@H](Oc3nccc4ccccc34)CN2C(=O)[C@@H](NC(=O)OC(C)(C)C)C1` [Compound 150], the IC50 is under 50 nM.

As to `COc1ccc2c(OC3CC4C(=O)NC5(C(=O)NS(=O)(=O)C6CC6)CC5C=CCCCOCC(NC(=O)N5CCCC5)C(=O)N4C3)nc(-c3ccccc3)cc2c1` (stereo not shown) [Compound 93], the IC50 is under 50 nM.

Turning to `COc1ccc2c(OC3CC4C(=O)NC5(C(=O)NS(=O)(=O)C6CC6)CC5C=CCCCOCC(NC(=O)OC5CCCC5)C(=O)N4C3)nc(-c3ccccc3)cc2c1` (stereo not shown) [Compound 94], the IC50 was under 50 nM.

Turning to `CCC1(S(=O)(=O)NC(=O)C23CC2C=CCCCSCC(NC(=O)OC(C)(C)C)C(=O)N2CC(Oc4nccc5cc(OC)ccc45)CC2C(=O)N3)CC1` (stereo not shown) [Compound 121], the IC50 is under 50 nM.

As for `COc1ccc2c(OC3CC4C(=O)NC5(C(=O)NS(=O)(=O)C6CC6)CC5C=CCCCSCC(N)C(=O)N4C3)nccc2c1` (stereo not shown) [Compound 117], the IC50 is 50 to 500 nM.

As to `COc1ccc2c(OC3CC4C(=O)NC5(C(=O)NS(=O)(=O)C6CC6)CC5C=CCCCOCC(NC(=O)NC(C)(C)C)C(=O)N4C3)nccc2c1` (stereo not shown) [Compound 86], the IC50 is under 50 nM.

As to `CC(C)(C)OC(=O)NC1CN(C(=O)C2CC2)CCCC=CC2CC2(C(=O)NS(=O)(=O)C2CC2)NC(=O)C2CC(Oc3nccc4ccccc34)CN2C1=O` (stereo not shown) [Compound 152], the IC50 is under 50 nM.

As to `COc1ccc2c(OC3CC4C(=O)NC5(C(=O)NS(=O)(=O)C6CC6)CC5C=CCCCCCC(NC(=O)OC(C)(C)C)C(=O)N4C3)nccc2c1OC` (stereo not shown) [Compound 134], the IC50 is under 50 nM.

Turning to `COc1ccc2c(OC3CC4C(=O)NC5(C(=O)NS(=O)(=O)C6CC6)CC5C=CCOCCCC(NC(=O)OC(C)C)C(=O)N4C3)nc(-c3ccccc3)cc2c1` (stereo not shown) [Compound 98], the IC50 was under 50 nM.

For `CC(C)(OC(=O)NC1CCCCCC=CC2CC2(C(=O)NS(=O)(=O)C2CC2)NC(=O)C2CC(Oc3nccc4ccccc34)CN2C1=O)C(Cl)(Cl)Cl` (stereo not shown) [Compound 124], the IC50 is under 50 nM.

On to `CN1CCC/C=C\[C@@H]2C[C@@]2(C(=O)NS(=O)(=O)C2CC2)NC(=O)[C@@H]2C[C@@H](Oc3nccc4ccccc34)CN2C(=O)[C@@H](NC(=O)OC(C)(C)C)C1` [Compound 147], for which the IC50 was under 50 nM.

For `COc1ccc2c(OC3CC4C(=O)NC5(C(=O)NS(=O)(=O)C6CC6)CC5C=CCOCCCC(NC(=O)N5CCCC5)C(=O)N4C3)nc(-c3ccccc3)cc2c1` (stereo not shown) [Compound 100], the IC50 is under 50 nM.

For `COc1ccc2c(OC3CC4C(=O)NC5(C(=O)NS(=O)(=O)C6CC6)CC5C=CCCCOCC(NC(=O)NC(C)(C)C)C(=O)N4C3)nc(-c3ccc(N(C)C)cc3)cc2c1` (stereo not shown) [Compound 108], the IC50 is under 50 nM.

On to `COc1ccc2c(OC3CC4C(=O)NC5(C(=O)NS(=O)(=O)C6CC6)CC5C=CCCCOCC(NC(=O)NC(C)(C)C)C(=O)N4C3)nc(-c3ccccc3)cc2c1` (stereo not shown) [Compound 92], for which the IC50 was under 50 nM.

For the molecule `COc1ccc2c(OC3CC4C(=O)NC5(C(=O)NS(=O)(=O)C6CC6)CC5C=CCCCCCC(NC(=O)OC(C)(C)C)C(=O)N4C3)nccc2c1F` (stereo not shown) [Compound 132], the IC50 is under 50 nM.

Regarding `CC(C)(C)OC(=O)N[C@H]1CNCCC/C=C\[C@@H]2C[C@@]2(C(=O)NS(=O)(=O)C2CC2)NC(=O)[C@@H]2C[C@@H](Oc3nccc4ccccc34)CN2C1=O` [Compound 151], the IC50 was under 50 nM.

For the molecule `COc1ccc2c(OC3CC4C(=O)NC5(C(=O)NS(=O)(=O)C6CC6)CC5C=CCOCCCC(NC(=O)OC5CCCC5)C(=O)N4C3)nc(-c3ccccc3)cc2c1` (stereo not shown) [Compound 99], the IC50 was under 50 nM.

For orientation: IC50 means the concentration that inhibits the measured activity by half.
